Laboratory results from patent publication US5202354A, “Composition and method for reducing acetaldehyde toxicity” (priority 1986, dated 1993).
“Also recorded” adds a separate entry of the source. Where a name gives a salt, the structure may show the parent alone.

Assay: Antagonistic effects on the anesthetic and lethal effects of acetaldehyde in rats
Type: in vivo
Settings: acetaldehyde 1370 mg/kg oral, hydrochloride
Procedure: Rats (body weights 250-280 g) fasted for 18 hours were previously dosed orally with each of test compositions Formula A to Formula G as shown in below. Control group received a corresponding volume of saline by the same route. After a predetermined time (45-60 min ), acetaldehyde (1370 mg/kg) was orally administered to the rats and the effect of Formula A to Formula G on the anesthetic and lethal effects of acetaldehyde was observed.
When 1370 mg/kg of acetaldehyde was administered without prior treatment with the test compositions, the rats (control group) fell into anesthesia within several minutes, and then developed dyspnea and the like and 90% of them died within 1 to 6 hours.
The same experiment as Experimental Example I was carried out with each of test compositions Formula H and I and the results obtained are shown in Table 4.

## CC(=C(CCO)SSCC1CCCO1)N(C=O)Cc1cnc(C)nc1N (stereo in doubt) [fursultiamine hydrochloride]
  antagonizing effect against anesthetic and lethal effects of acetaldehyde (in words): fully effective at the level of addition of 20 mg/kg; also recorded: more effective than thiamine hydrochloride
